Experimental data as given in patent US20160031905A1, “Macrocyclic LRRK2 Kinase Inhibitors” (IPSEN PHARMA S.A.S., priority 2013, published 2016).
Structures can show the parent of a compound that is named as a salt.

Tests used:
[1] = molecular target: T1, LRRK2 recombinant protein (Homo sapiens, UniProt Q5S007); test: Radiometric protein kinase assay (33PanQinase Activity Assay), in vitro peptide-based kinase assay; format: biochemical; details: protein kinase LRRK2 7.3 nM, ATP 0.3 μM, substrate GSK3(14-27), 30° C. for 60 minutes
T1 construct: purchased Invitrogen Corporation
Procedure: The inhibition of LRRK2 kinase was assessed using LRRK2 recombinant protein in an in vitro peptide-based kinase assay.
A radiometric protein kinase assay (^33PanQinase® Activity Assay) is used for measuring the kinase activity. All assays are performed in 96-well FlashPlates™ from Perkin Elmer in a 50 μl reaction volume. The reaction cocktail is […] in 4 steps in the following order: • 10 μl of non-radioactive ATP solution (in H2O) • 25 μl of assay buffer/[γ-^33P]-ATP mixture • 5 μl of test sample in 10% DMSO • 10 μl of enzyme/substrate mixture
The assay for LRRK2 contains 70 mM HEPES-NaOH pH 7.5, 3 mM MgCl2, 3 mM MnCl2, 3 μM Na-orthovanadate, 1.2 mM DTT, 50 μg/ml PEG20000, ATP (0.3 μM), [γ-^33P]-ATP (approx. […] per well), protein kinase LRRK2 (7.3 nM) and substrate (GSK3(14-27), 1.0 μg/50 μl). The kinase is obtained from Invitrogen Corporation.
The reaction cocktails were incubated at 30° C. for 60 minutes. The reaction was stopped with 50 μl of 2% (v/v) H3PO4, plates were aspirated and washed two times with 200 μl 0.9% (w/v) NaCl. Incorporation of ^33Pi (counting of “cpm”) was determined with a microplate scintillation counter.
The compounds are dissolved to 10 mM in DMSO. Where needed, solutions are sonicated in a bath sonicator.

T1 sequence (Q5S007 whole entry): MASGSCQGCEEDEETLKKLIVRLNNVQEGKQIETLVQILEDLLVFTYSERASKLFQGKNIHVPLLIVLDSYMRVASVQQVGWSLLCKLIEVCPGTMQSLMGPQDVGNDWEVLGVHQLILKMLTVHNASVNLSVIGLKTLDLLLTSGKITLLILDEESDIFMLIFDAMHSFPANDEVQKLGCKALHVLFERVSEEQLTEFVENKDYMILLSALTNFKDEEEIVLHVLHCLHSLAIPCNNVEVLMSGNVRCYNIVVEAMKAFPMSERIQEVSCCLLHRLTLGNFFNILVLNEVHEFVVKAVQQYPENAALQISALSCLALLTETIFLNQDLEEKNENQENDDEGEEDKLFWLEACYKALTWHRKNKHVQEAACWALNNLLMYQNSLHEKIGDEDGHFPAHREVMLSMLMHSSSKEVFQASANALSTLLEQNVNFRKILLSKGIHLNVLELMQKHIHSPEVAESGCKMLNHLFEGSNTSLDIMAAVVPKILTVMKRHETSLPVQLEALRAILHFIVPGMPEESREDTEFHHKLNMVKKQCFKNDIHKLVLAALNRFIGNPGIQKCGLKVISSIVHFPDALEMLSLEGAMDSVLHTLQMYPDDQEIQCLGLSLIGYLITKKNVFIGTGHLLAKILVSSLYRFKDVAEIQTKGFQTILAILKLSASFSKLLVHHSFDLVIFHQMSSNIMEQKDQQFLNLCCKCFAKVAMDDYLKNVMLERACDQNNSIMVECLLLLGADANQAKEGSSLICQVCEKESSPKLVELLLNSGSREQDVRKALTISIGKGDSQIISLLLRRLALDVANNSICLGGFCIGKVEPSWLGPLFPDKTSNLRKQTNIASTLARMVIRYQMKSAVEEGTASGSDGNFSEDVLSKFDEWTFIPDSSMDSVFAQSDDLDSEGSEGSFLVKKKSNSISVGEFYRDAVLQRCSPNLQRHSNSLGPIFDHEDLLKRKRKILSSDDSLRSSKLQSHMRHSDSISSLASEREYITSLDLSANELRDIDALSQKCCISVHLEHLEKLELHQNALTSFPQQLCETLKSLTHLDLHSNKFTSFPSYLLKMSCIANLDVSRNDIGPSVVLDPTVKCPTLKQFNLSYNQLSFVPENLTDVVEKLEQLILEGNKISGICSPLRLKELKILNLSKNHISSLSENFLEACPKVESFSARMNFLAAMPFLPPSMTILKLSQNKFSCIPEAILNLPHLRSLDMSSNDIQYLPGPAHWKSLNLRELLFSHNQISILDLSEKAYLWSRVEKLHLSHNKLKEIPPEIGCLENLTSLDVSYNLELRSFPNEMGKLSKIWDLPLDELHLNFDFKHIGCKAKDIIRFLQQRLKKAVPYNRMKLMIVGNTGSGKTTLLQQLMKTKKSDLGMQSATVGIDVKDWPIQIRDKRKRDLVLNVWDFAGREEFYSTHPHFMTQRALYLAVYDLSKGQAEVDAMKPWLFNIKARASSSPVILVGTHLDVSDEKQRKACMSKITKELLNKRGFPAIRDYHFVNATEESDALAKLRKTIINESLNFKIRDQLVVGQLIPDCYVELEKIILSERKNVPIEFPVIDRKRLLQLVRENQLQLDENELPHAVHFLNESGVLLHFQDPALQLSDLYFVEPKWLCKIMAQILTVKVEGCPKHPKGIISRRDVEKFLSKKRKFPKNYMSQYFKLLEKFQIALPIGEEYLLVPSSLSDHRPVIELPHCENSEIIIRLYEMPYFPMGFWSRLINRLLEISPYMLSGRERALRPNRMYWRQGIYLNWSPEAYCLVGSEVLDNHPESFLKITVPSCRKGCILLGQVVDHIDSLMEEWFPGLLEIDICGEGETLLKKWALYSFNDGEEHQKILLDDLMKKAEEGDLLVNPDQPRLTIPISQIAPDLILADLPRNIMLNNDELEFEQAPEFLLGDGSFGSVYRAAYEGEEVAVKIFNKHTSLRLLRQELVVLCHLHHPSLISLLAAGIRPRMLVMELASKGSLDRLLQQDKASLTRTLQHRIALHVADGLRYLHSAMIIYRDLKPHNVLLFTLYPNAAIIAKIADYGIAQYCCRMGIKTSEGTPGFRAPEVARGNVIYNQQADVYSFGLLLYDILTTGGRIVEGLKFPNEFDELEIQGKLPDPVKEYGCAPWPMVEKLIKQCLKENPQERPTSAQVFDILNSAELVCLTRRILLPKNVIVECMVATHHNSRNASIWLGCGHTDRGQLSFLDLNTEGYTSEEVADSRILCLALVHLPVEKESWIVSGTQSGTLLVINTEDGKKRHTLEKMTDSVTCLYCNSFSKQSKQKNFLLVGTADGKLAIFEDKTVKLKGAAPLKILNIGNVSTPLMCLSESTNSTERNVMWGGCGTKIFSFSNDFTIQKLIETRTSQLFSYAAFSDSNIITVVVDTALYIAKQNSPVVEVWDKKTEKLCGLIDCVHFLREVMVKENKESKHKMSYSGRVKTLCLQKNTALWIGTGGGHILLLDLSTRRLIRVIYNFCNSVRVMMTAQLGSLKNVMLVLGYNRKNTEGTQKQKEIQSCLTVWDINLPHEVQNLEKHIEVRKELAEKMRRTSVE

Row | melting point [°C] | IC50 [1] [nM] | SMILES
1 | 280 |  | c1cc2cc(c1)-c1cnn3ccc(nc13)NCCCNCCCN2 (as salt: HCl) [Compound G1]
2 | 280 |  | c1cc2cc(c1)-c1cnn3ccc(nc13)OCCCNCCN2 (as salt: HCl) [Compound G3]
3 | > 300 |  | CN1CCCNCCOc2ccc(F)c(c2)-c2cnn3ccc1nc23 (as salt: HCl) [Compound G16]
4 | > 300 |  | CN1CCCNc2ccn3ncc(c3n2)-c2cc(ccc2F)OCC1 (as salt: HCl) [Compound G18]
5 | > 300 |  | Fc1ccc2cc1-c1cnn3ccc(nc13)NCCNCCO2 (as salt: hydrochloride) [Compound C1]
6 | 215 | < 100 | CC1CNCCNc2ccn3ncc(c3n2)-c2cccc(c2)O1 (racemic) [Compound G5]
7 | > 300 | < 100 | c1cc2cc(c1)-c1cnn3ccc(nc13)NCCCNCCO2 [Compound A33]
8 |  | < 100 | Fc1ccc2cc1-c1cnn3ccc(nc13)NCCNCCO2 [Compound C1]
9 | > 300 | < 100 | Fc1ccc2cc1OCCNCCNc1ccn3ncc-2c3n1 [Compound C2]
10 | > 300 | < 100 | c1cc2cc(c1)-c1cnn3ccc(nc13)NCCNCCN2 [Compound D1]
11 | > 300 | < 100 | c1cc2cc(c1)-c1cnn3ccc(nc13)NCCNCCCN2 [Compound D3]
12 | 296.8 | < 100 | c1cc2cc(c1)-c1cnn3ccc(nc13)NCCCNCCN2 [Compound D4]
13 | 146.9 | < 100 | c1cc2cc(c1)-c1cnn3ccc(nc13)NCCCCNCCCO2 [Compound D5]
14 |  | < 100 | c1cc2cc(c1)-c1cnn3ccc(nc13)NCCCNCCCN2 [Compound G1]
15 | > 300 | < 100 | CN1CCNCCOc2cccc(c2)-c2cnn3ccc1nc23 [Compound G2]
16 |  | < 100 | c1cc2cc(c1)-c1cnn3ccc(nc13)OCCCNCCN2 [Compound G3]
17 | > 300 | < 100 | c1cc2cc(c1)-c1cnc3ccc(nn13)NCCCNCCO2 [Compound G4]
18 | 197.6 | < 100 | Fc1ccc2cc1-c1cnn3ccc(nc13)NCCCNCCO2 [Compound G6]
19 | > 300 | < 100 | Fc1ccc2cc1-c1cnn3ccc(nc13)NCCNCCN2 [Compound G7]

Row | melting point [°C] | IC50 [1] [nM] | SMILES
20 | 276.7 | < 100 | c1cc2cc(c1)-c1cnn3ccc(nc13)OCCNCCCN2 [Compound G8]
21 | 245.9 | < 100 | CC1COc2cccc(c2)-c2cnn3ccc(nc23)NCCN1 (stereo not drawn) [Compound G11]
22 | > 300 | < 100 | Fc1ccc2cc1-c1cnn3ccc(nc13)NCCCNCCN2 [Compound G12]
23 | > 300 | < 100 | c1cc2cc(c1)-c1cnn3ccc(nc13)NCCCCNCCO2 [Compound G14]
24 |  | < 100 | Fc1ccc2cc1-c1cnc3ccc(nn13)NCCCNCCO2 [Compound G15]
25 |  | < 100 | CN1CCCNCCOc2ccc(F)c(c2)-c2cnn3ccc1nc23 [Compound G16]
26 | 297.5 | < 100 | CN1CCCNCCOc2cccc(c2)-c2cnn3ccc1nc23 [Compound G17]
27 |  | < 100 | CN1CCCNc2ccn3ncc(c3n2)-c2cc(ccc2F)OCC1 [Compound G18]
28 | 279.1 | < 100 | Fc1ccc2cc1-c1cnn3ccc(nc13)OCCCNCCN2 [Compound G19]
29 |  | < 100 | CN1CCCNc2ccn3ncc(c3n2)-c2cccc(c2)OCC1 [Compound G20]
30 | > 300 | < 100 | Fc1ccc2cc1-c1cnn3ccc(nc13)NCCNCCCN2 [Compound G21]
31 | 286.4 | < 100 | CN1CCNCCCOc2cccc(c2)-c2cnn3ccc1nc23 [Compound G22]
32 | > 300 | < 100 | CC1CNCCCNc2ccn3ncc(c3n2)-c2cccc(c2)O1 (stereo not drawn) [Compound G23]
33 | > 300 | < 100 | CN1CCCNCCOc2ccc(F)c(c2)-c2cnc3ccc1nn23 [Compound G24]
34 | 168.8 | 100 to 1000 | CN1CCCOc2ccc(F)c(c2)-c2cnn3ccc(nc23)NCC1 [Compound G25]
35 | > 300 | < 100 | CN1CCNCCCOc2ccc(F)c(c2)-c2cnn3ccc1nc23 [Compound G26]
36 | > 300 | < 100 | Clc1ccc2cc1-c1cnn3ccc(nc13)NCCCNCCO2 [Compound G27]
37 | > 300 | < 100 | CC1CNCCCNc2ccn3ncc(c3n2)-c2cc(ccc2F)O1 (stereo not drawn) [Compound G28]
38 | > 300 | 100 to 1000 | Clc1ccc2cc1-c1cnn3ccc(nc13)NCCNCCCO2 [Compound G30]

Row | melting point [°C] | IC50 [1] [nM] | SMILES
39 |  | < 100 | CC1COc2cccc(c2)-c2cnn3ccc(nc23)NCCCN1 (stereo not drawn) [Compound G31]
40 | > 300 | < 100 | c1cc2cc(c1)-c1cnc3ccc(nn13)NCCNCCCO2 [Compound G32]
41 | > 300 | < 100 | Fc1ccc2cc1-c1cnc3ccc(nn13)NCCNCCCO2 [Compound G33]
42 | > 300 | < 100 | CN1CCNCCCOc2ccc(F)c(c2)-c2cnc3ccc1nn23 [Compound G34]
43 | 284.8 | < 100 | CN1CCCNCCNc2ccc(F)c(c2)-c2cnn3ccc1nc23 [Compound G35]
44 | > 300 | < 100 | Fc1ccc2cc1-c1cnc3ccc(nn13)OCCCNCCN2 [Compound G36]
45 | > 300 | < 100 | Fc1ccc2cc1-c1cnc3ccc(nn13)NCCNCCCN2 [Compound G37]
46 | > 300 | < 100 | CN1CCNCCCNc2ccc(F)c(c2)-c2cnn3ccc1nc23 [Compound G39]
47 | > 300 | < 100 | Fc1ccc2cc1-c1cnn3ccc(nc13)NCCCCNCCO2 [Compound G40]
48 | 263.8 | < 100 | CN1CCNCCCNc2ccc(F)c(c2)-c2cnc3ccc1nn23 [Compound G41]
49 | 296.8 | 100 to 1000 | Cc1ccc2cc1-c1cnn3ccc(nc13)NCCCNCCO2 [Compound G42]
50 | > 300 | < 100 | Fc1ccc2cc1-c1cnc3ccc(nn13)NCCCNCCN2 [Compound G43]
51 | 242.3 | < 100 | CN1CCCOc2ccc3ncc(n3n2)-c2cc(ccc2F)NCC1 [Compound G44]
52 | 289.1 | < 100 | CN1CCCNc2ccc(F)c(c2)-c2cnc3ccc(nn23)NCC1 [Compound G45]
53 | 270.4 | < 100 | Fc1ccc2cc1-c1cnn3ccc(nc13)NCCCCNCCN2 [Compound G46]
54 | 262.6 | < 100 | N#CCN1CCCNc2ccc(F)c(c2)-c2cnn3ccc(nc23)NCC1 [Compound G47]
55 | 289.4 | 100 to 1000 | CN1CCCNc2ccc(F)c(c2)-c2cnc3ccc(nn23)N(C)CC1 [Compound G48]
56 |  | < 100 | Fc1ccc2cc1-c1cnn3ccc(nc13)NCCCOCCN2 [Compound G49]
57 |  | < 100 | CN1CCCNCCNc2ccc(F)c(c2)-c2cnc3ccc1nn23 [Compound G50]
